Results as given in ChEMBL document CHEMBL1201862, “PubChem BioAssay data set” (2004).
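Interpolation was linear, between the two tested concentrations surrounding the appropriate level; five concentrations were tested over 48 hours in 96-well plates. GI50 marks 50% less growth.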 Activity calls are given as the source filed them. Rule as the data show it: active = GI50 up to about 1.1 µM and inactive = higher.

Key:
Assay in all cases: NCI-60 cell line screen, 48 h
[1] = system: CAKI-1
[2] = system: DMS-114
[3] = system: EKVX
[4] = system: HCC 2998
[5] = system: HCT-116
[6] = system: HL-60
[7] = system: KM12
[8] = system: LOX IMVI
[9] = system: MOLT-4
[10] = system: OVCAR-5
[11] = system: SK-MEL-2
[12] = system: SK-MEL-5
[13] = system: SK-OV-3
[14] = system: SNB-75
[15] = system: SW-620
[16] = system: Malme-3M
[17] = system: NCI/ADR-RES
[18] = system: T47D

Measured: GI50

CN(C)CCNC(=O)c1cccc2c1nc(-c1ccccn1)c1ccccc12
inactive: [1] 18.1 µM | [2] 18.3 µM | [3] 22.7 µM | [4] 15.7 µM | [5] 10.3 µM | [6] 16.4 µM | [7] 28.3 µM | [8] > 10 µM | [9] 3.87 µM | [10] 14.8 µM | [11] 18.8 µM | [12] 15.2 µM | [13] 17.4 µM | [14] 21.3 µM | [15] 11.2 µM

O=C(Nc1cnc(O)nc1O)Oc1ccccc1
inactive: [1] > 100 µM | [3] > 100 µM | [4] > 100 µM | [5] > 100 µM | [6] 14.3 µM | [7] > 100 µM | [8] > 100 µM | [9] > 100 µM | [16] > 100 µM | [17] > 100 µM | [10] > 100 µM | [11] > 100 µM | [12] > 100 µM | [13] > 100 µM | [14] > 100 µM | [15] > 100 µM | [18] > 100 µM

CO[C@H]1C[C@@H]2CC[C@@H](C)[C@@](O)(O2)C(=O)C(=O)N2CCCC[C@H]2C(=O)O[C@H]([C@H](C)C[C@@H]2CC[C@@H](OC(=O)C(C)(CO)CO)[C@H](OC)C2)CC(=O)[C@H](C)/C=C(\C)[C@@H](O)[C@@H](OC)C(=O)[C@H](C)C[C@H](C)/C=C/C=C/C=C/1C [TEMSIROLIMUS]
inactive: [4] 1.82 µM | [5] 3.26 µM | [6] 2.72 µM | [13] 1.97 µM | [15] 4.23 µM
active: [1] 0.0142 µM | [3] 0.0185 µM | [7] 0.0264 µM | [8] 0.00327 µM | [9] 0.00176 µM | [16] 0.000199 µM | [17] 0.0881 µM | [10] 0.00363 µM | [11] 0.051 µM | [12] 0.0792 µM | [14] 0.0104 µM | [18] 0.000995 µM

CC1OC(O[C@H]2CC[C@]3(C=O)[C@H]4CC[C@]5(C)[C@H](C6=CC(=O)OC6)CC[C@]5(O)[C@@H]4C=C[C@]3(O)C2)CC(O)C1O (stereo not given in full)
active: [1] 0.103 µM | [3] 0.261 µM | [4] 0.836 µM | [5] 0.0885 µM | [6] 0.196 µM | [7] 0.676 µM | [8] 0.292 µM | [9] 0.083 µM | [16] 0.13 µM | [17] 0.27 µM | [10] 0.547 µM | [11] 0.505 µM | [12] 0.0991 µM | [13] 0.502 µM | [14] 0.484 µM | [15] 0.313 µM | [18] 0.524 µM

COc1cccc(-c2cc(O)c3cc(OC)ccc3n2)c1
active: [1] 0.475 µM | [3] 0.92 µM | [4] 0.291 µM | [5] 0.239 µM | [6] 0.0791 µM | [7] 0.396 µM | [8] 0.439 µM | [9] 0.311 µM | [16] 0.0553 µM | [17] 0.173 µM | [10] 0.452 µM | [11] 0.321 µM | [12] 0.182 µM | [13] 0.208 µM | [14] 0.318 µM | [15] 0.281 µM
inactive: [18] > 10 µM

CCOC(=O)[C@@H]1CCN2CN(c3ccc(OC)cc3)N=C(c3ccccc3)[C@@]12c1ccccc1
inactive: [1] 29.6 µM | [3] 29.4 µM | [4] 26.2 µM | [5] 16.7 µM | [6] 6.7 µM | [7] 28.3 µM | [8] 14.1 µM | [9] 26.1 µM | [16] 16.6 µM | [17] 28.3 µM | [10] 32.2 µM | [11] 18.1 µM | [12] 13.2 µM | [13] 44 µM | [14] 11.5 µM | [15] 32.1 µM | [18] 19.1 µM
